# According to patent publication US6638967B2, “Thiophene of furan pyrrolidine compounds” (Ortho-McNeil Phamraceutical, Inc., priority 2000, dated 2003):
# Structures can show the parent of a compound that is named as a salt.
# Target: T1, human histamine H3 receptor (Homo sapiens, UniProt Q9Y5N1)
# T1 construct: One microgram of supercoiled H3 receptor cDNA was added to the cells and mixed; expressed in transfected cells
# Assay: [3H]-N-methylhistamine binding
# Conditions: membranes of histamine H3 receptor-expressing SK-N-MC cells, 0.8 nM [3H]-N-methylhistamine, 45 min at 25° C.
# Procedure: Thus in the present invention receptor binding was determined using the human histamine H3 receptor (See Lovenberg et al Mol. Pharmacol. 1999, 1107). Screening using the human receptor is particularly important for the identification of new therapies for the treatment of human disease. Conventional binding assays for example are determined using rat synaptosomes (Garbarg et al J. Pharmacol. Exp. Ther. 1992, 263, 304), rat cortical membranes (West et al Mol. Pharmacol. 1990, 610), and guinea pig brain (Korte et al Biochem. Biophys. Res. Commun. 1990, 978). Only limited studies have been performed previously using human tissue but these allude to significant differences in the pharmacology of rodent and primate receptors (West et al Eur. J. Pharmacol. 1999, 233).
# Transfection of Cells With Human Histamine Receptor
# A 10 cm tissue culture dish with a confluent monolayer of SK-N-MC cells was split two days prior to transfection. Using sterile technique the media was removed and the cells were detached from the dish by the addition of trypsin. One fifth of the cells were then placed onto a new 10 cm dish. Cells were grown in a 37° C. incubator with 5% CO2 in Minimal Essential Media Eagle with 10% Fetal Bovine Serum. After two days cells were approximately 80% confluent. These were removed from the dish with trypsin and pelleted in a clinical centrifuge. The pellet was then re-suspended in 400 μL complete media and transferred to an electroporation cuvette with a 0.4 cm gap between the electrodes (Bio-Rad #165-2088). One microgram of supercoiled H3 receptor cDNA was added to the cells and mixed. The voltage for the electroporation was set at 0.25 kV; the capacitance was set at 960 μF. After electroporation the cells were diluted into 10 mL complete media and plated onto four 10 cm dishes. Because of the variability in the efficiency of electroporation, four different concentrations of cells were plated. The ratios used were; 1:20, 1:10, 1:5, with the remainder of the cells being added to the fourth dish. The cells were allowed to recover for 24 hours before adding the selection media (complete media with 600 μg/mL G418). After 10 days dishes were analyzed for surviving colonies of cells. Dishes with well isolated colonies were used. Cells from individual colonies were isolated and tested. SK-N-MC cells were used because they give efficient coupling for inhibition of adenylate cyclase. The clones that gave the most robust inhibition of adenylate cyclase in response to histamine were used for further study.
# [^3H]-N-methylhistamine binding
# Cell pellets from histamine H3 receptor-expressing SK-N-MC cells were homogenized in 20 mM TrisHCI/0.5 mM EDTA. Supernatants from a 800 g spin were collected, recentrifuged at 30,000 g for 30 minutes. Pellets were re-homogenized in 50 mM Tris/5 mM EDTA (pH 7.4). Membranes were incubated with 0.8 nM [^3H]-N-methylhistamine plus/minus test compounds for 45 min at 25° C. and harvested by rapid filtration over GF/C glass fiber filters (pretreated with 0.3 % polyethylenimine) followed by four washes with ice cold buffer. Filters were dried, added to 4 mL scintillation cocktail and then counted on a liquid scintillation counter. Non-specific binding was defined with 10 μM histamine. The pKi values were calculated based on a Kd of 800 pM and a ligand concentration ([L]) of 800 pM according to the formula: […]
# T1 sequence (Q9Y5N1 whole entry): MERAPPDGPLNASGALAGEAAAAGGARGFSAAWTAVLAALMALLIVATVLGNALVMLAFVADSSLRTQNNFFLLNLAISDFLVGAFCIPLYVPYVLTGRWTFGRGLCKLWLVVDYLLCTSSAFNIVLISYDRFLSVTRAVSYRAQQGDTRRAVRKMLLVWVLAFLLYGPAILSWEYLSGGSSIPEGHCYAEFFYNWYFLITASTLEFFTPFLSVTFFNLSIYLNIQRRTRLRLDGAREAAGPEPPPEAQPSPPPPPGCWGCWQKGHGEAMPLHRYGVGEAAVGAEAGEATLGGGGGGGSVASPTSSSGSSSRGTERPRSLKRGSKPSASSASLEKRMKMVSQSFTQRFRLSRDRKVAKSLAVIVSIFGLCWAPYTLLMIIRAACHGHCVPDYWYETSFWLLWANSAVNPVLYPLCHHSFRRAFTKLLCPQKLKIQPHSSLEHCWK
row,Ki,Structure (SMILES)
1,2.5 nM,O=S(=O)(c1ccc(CN2CCCC2)cc1)c1ccc(CN2CCCC2)cc1 [Example 8]
2,129 nM,"CN(C)CCCOc1ccc(C(=O)c2ccc(O)cc2)cc1 [Example 33, [4-(3-Dimethylamino-propoxy)-phenyl]-(4-hydroxy-phenyl)-methanone]"
3,16 nM,"c1ccn(Cc2ccc(COc3ccc(CN4CCCC4)cc3)cc2)c1 [Example 20, 1-[4-(4Pyrrolidin1-ylmethyl-phenoxymethyl)-benzyl]-1H-pyrrole]"
4,9 nM,"c1cc(CN2CCCC2)c(-c2ccc(CN3CCCC3)cc2)s1 [Example 4, 1-[(2-(4-Pyrrolidin-1-ylmethyl-phenyl)-thiophen)-3-ylmethyl]-pyrrolidine]"
5,24.2 nM,c1cc(Cn2ccc(CN3CCCC3)c2)ccc1CN1CCCC1 [Example 30]
6,8.7 nM,"O=Cc1ccc(-c2ccc(CN3CCCC3)cc2)cc1 [Example 27, 4′-Pyrrolidin-1-ylmethyl-biphenyl-4-carbaldehyde]"
7,63 nM,"c1cc(-c2ccc(CN3CCCC3)cc2)c(CN2CCCC2)s1 [Example 5, 1-[(3-(4-Pyrrolidin-1-ylmethyl-phenyl)-thiophen)-2-ylmethyl]-pyrrolidine]"
8,15 nM,"c1ccc(CN(c2ccc(CN3CCCC3)cc2)c2ccc(CN3CCCC3)cc2)cc1 [Example 23, Benzyl-bis-(4pyrrolidin1-ylmethyl-phenyl)-amine]"
9,85 nM,C/N=C(\NC)SCc1ccc(Oc2ccc(CS/C(=N/C)NC)cc2)cc1 [Example 12]
10,3.2 nM,c1cc(CN2CCCC2)n(Cc2ccc(CN3CCCC3)cc2)c1 [Example 31]
11,2 nM,c1cc(CN2CCCC2)ccc1Cc1ccc(CN2CCCC2)cc1 [Example 9]
12,14 nM,"CN(C)CCCSc1ccc(C(=O)c2ccc(SCCCN(C)C)cc2)cc1 [Example 32, Bis-[4-(3-dimethylamino-propylsulfanyl)-phenyl]methanone dihydrochloride]"
13,26.6 nM,"c1cc(CCN2CCCC2)ccc1CCc1ccc(CCN2CCCC2)cc1 [Example 29, 1-(2-{4-[2-(1-Phenethyl-pyrrolidine)-ethyl]-phenyl}-ethyl)-pyrrolidine]"
14,453 nM,CN(C)CCN(c1ccc(CN2CCCC2)cc1)c1ccc(CN2CCCC2)cc1 [Example 25]
15,0.41 nM,c1cc(-c2ccc(CN3CCCC3)o2)ccc1CN1CCCC1 [Example 2]
16,150 nM,c1cn(Cc2ccc(Cc3ccc(Cn4ccnc4)cc3)cc2)cn1 [Example 11]
17,3.5 nM,"c1cc(N(CCCN2CCCCC2)c2ccc(CN3CCCC3)cc2)ccc1CN1CCCC1 [Example 24, (3Piperidin-1-yl-propyl)-bis-(4pyrrolidin1-ylmethyl-phenyl)-amine]"
18,792 nM,"Cn1ccnc1SCc1ccc(Oc2ccc(CSc3nccn3C)cc2)cc1 [Example 16, 2-[4-(4-(1Methyl-imidazo)-2-ylthiomethyl-phenoxy-)-benzyl-thio]-1-methyl-imidazole]"
19,0.66 nM,c1cc(Oc2ccc(CN3CCCCC3)cc2)ccc1CN1CCCCC1 [Example 7]
20,151 nM,c1cn(Cc2ccc(Oc3ccc(Cn4ccnc4)cc3)cc2)cn1 [Example 10]
21,756 nM,"O=[N+]([O-])c1cc(CN2CCCCC2)ccc1Sc1ccc(N2CCCCC2)cc1 [Example 26, 1-[4-(4-Piperidine-phenylsulfanyl)-3-nitro-benzyl]-piperidine]"
22,344 nM,"c1cc(Oc2ccc(CNC3=NCCN3)cc2)ccc1CNC1=NCCN1 [Example 17, 2-[4-(4-(2Imidazolin)-2-ylaminomethyl-phenoxy-)-benzyl-amino]-2-imidazolidone]"
23,629 nM,CNC(=N)SCc1ccc(Oc2ccc(CSC(=N)NC)cc2)cc1 [Example 13]
24,9 nM,c1cc(-c2ccc(CN3CCCC3)s2)ccc1CN1CCCC1 [Example 1]
25,2570 nM,"c1cc(Oc2ccc(CSC3=NCCS3)cc2)ccc1CSC1=NCCS1 [Example 15, 2-[4-(4-(2Thiazolin)-2-ylthiomethyl-phenoxy-)-benzyl-thio]-2-thiazoline]"
26,6.5 nM,"ON=Cc1ccc(-c2ccc(CN3CCCC3)cc2)cc1 [Example 28, 4′-Pyrrolidin-1-ylmethyl-biphenyl-4-carbaldehyde oxime]"
27,1.4 nM,c1cc(-c2ccc(CN3CCCC3)s2)sc1CN1CCCC1 [Example 3]
28,0.5 nM,c1cc(Oc2ccc(CN3CCCC3)cc2)ccc1CN1CCCC1 [Example 6]
29,126 nM,"CN(C)CCOc1ccc(C(=O)c2ccc(OCCN(C)C)cc2)cc1 [Example 34, Bis-[4-(2-dimethylamino-ethoxy)-phenyl]-methanone]"
